The test system of one experiment is A549. As to the kind of experiment: Antiproliferative activity against human A549 cells after 48 hrs by MTT assay. The class given is functional, cell-based. Conditions: A549, 48 h. Background: Tetrazolium dyes change colour on reduction, which living cells bring about.
The test system of another experiment is MDA-MB-231. As to the kind of experiment: Antiproliferative activity against human MDA-MB-231 cells after 48 hrs by MTT assay. The class given is functional, cell-based. Conditions: MDA-MB-231, 48 h.
For the next experiment, the system named is HeLa. In words: Antiproliferative activity against human HeLa cells after 48 hrs by MTT assay. The class given is functional, cell-based.
In a further experiment the test system is SH-SY5Y. As to the kind of experiment: Antiproliferative activity against human SH-SY5Y cells after 48 hrs by MTT assay. It is filed as functional, cell-based.
Experiment [1] in a line: Antiproliferative activity against human SMMC7721 cells after 48 hrs by MTT assay. The class given is functional, cell-based. The note with it: SMMC-7721, 48 h.
The test system of another experiment is K562. In words: Antiproliferative activity against human K562 cells after 48 hrs by MTT assay. The note with it: K562, 48 h.
Experiment [2] in a line: Antiproliferative activity against human SGC7901 cells after 48 hrs by MTT assay. It is filed as functional, cell-based. Conditions: SGC-7901, 48 h.
The next experiment relates to SK-BR-3. As to the kind of experiment: Antiproliferative activity against human SK-BR-3 cells after 48 hrs by MTT assay. The class given is functional, cell-based. The note with it: SK-BR-3, 48 h.
The test system of the next experiment is LoVo. In words: Antiproliferative activity against human LoVo cells after 48 hrs by MTT assay. It is filed as functional, cell-based.

We go through seven compounds from ChEMBL document CHEMBL3217755, “Design, synthesis and biological evaluation of biphenyl urea derivatives as novel VEGFR-2 inhibitors” (Medchemcomm, 2013).

Usually IC50 stands for the concentration that gives 50% inhibition.

`COc1cc(-c2cc(NC(=O)Nc3ccc(OCCCN4CCOCC4)cc3C)cc(OC)c2OC)ccc1/C(C)=N/O`: the IC50 with A549 stood at 23.7 µM; with MDA-MB-231, 49.2 µM; in the experiment with HeLa it was 243 µM; with SH-SY5Y, 18.4 µM; in [1], 33.3 µM; with K562 it was 15.8 µM.

For `COc1cc(-c2cc(NC(=O)Nc3ccc(OCCN(C)C)cc3)cc(OC)c2OC)ccc1/C(C)=N/O`, the IC50 was 34.2 µM in [2]; 35.2 µM in the experiment with MDA-MB-231; 63.2 µM in the experiment on HeLa; 6.2 µM in the experiment with SH-SY5Y; 8.58 µM in the experiment with K562.

For `CCN(CC)CCOc1ccc(C)c(NC(=O)Nc2cc(OC)c(OC)c(-c3ccc(/C(C)=N/O)c(OC)c3)c2)c1`, the IC50 worked out at 14.7 µM in the experiment with SK-BR-3, 11.2 µM in the experiment with A549, 43.5 µM in the experiment on SH-SY5Y and 1.25 µM in the experiment on K562.

With `CCN(CC)CCOc1ccc(NC(=O)Nc2cc(OC)c(OC)c(-c3ccc(/C(C)=N/O)c(OC)c3)c2)cc1`, the IC50 in experiment [2] came to 58.1 µM; in the experiment with LoVo it was 48.4 µM; in the experiment with A549 it was 11.7 µM; with MDA-MB-231 it was 20.3 µM; with HeLa, 13.4 µM; in the experiment with SH-SY5Y it was 18.4 µM. Also, the IC50 stood at 36.4 µM in [1] and 1.29 µM with K562.

For the compound `COc1cc(-c2cc(NC(=O)Nc3ccc(OCCN4CCCC4)cc3)cc(OC)c2OC)ccc1/C(C)=N/O`, the IC50 with LoVo was 49.2 µM; with SK-BR-3 it was 38.9 µM; in the experiment with K562, 4.81 µM.

Turning to `CNC(=O)c1cc(Oc2ccc(NC(=O)Nc3ccc(Cl)c(C(F)(F)F)c3)cc2)ccn1` [SORAFENIB], the half-inhibitory concentration (IC50) was found to be 102 µM in experiment [2]; 5.21 µM with SK-BR-3; 3.36 µM in the experiment with A549; 7.68 µM in the experiment with HeLa; 9.86 µM in experiment [1].

With `COc1cc(-c2cc(NC(=O)Nc3ccc(OCCCN4CCOCC4)cc3)cc(OC)c2OC)ccc1/C(C)=N/O`, the half-maximal inhibitory concentration (IC50) turned out to be 6.8 µM in experiment [2]; 11.7 µM in the experiment with A549; 92.3 µM in the experiment on HeLa; 4.91 µM with SH-SY5Y; 9.88 µM in experiment [1]; 0.29 µM in the experiment with K562.
